The source of these data is US20250017859A1, “SOLID DISPERSION, PREPARATION METHOD, AND PHARMACEUTICAL COMPOSITION THEREOF” (Anxo Pharmaceutical Co., Ltd., priority 2023, published 2025).

Converted amounts (≈) assume the structure as drawn. Counter-ions that a name gives are not always drawn.

The nature of series [1]: Dissolution test 1: solubility by paddle method in pH 6.0+0.01% SDS medium. It is filed as physicochemical. On the procedure:
Dissolution tests of experimental group 1 to experimental group 28 produced by spray drying or hot melt extrusion, control group lurasidone HCl and lurasidone are performed to analyze the solubility of each experimental group and control group lurasidone HCl and lurasidone. The dissolution test is performed by paddle method in 500 mL of medium with a pH value of 6.0+0.01% SDS, in which a rotation speed is 100 rpm and a sampling time is 60 minutes.
For comparing the applicability of the carriers suitable for solid dispersion including lurasidone, solid dispersion of comparative group 1 (including crospovidone, a kind of common carrier ingredient) is prepared according to Example 1.2 (HME) and the weight ratio of table 12, and the solubility is tested according the abovementioned method of Example 1.3.1.

Series [2] can be described thus: Animal test: pharmacokinetics in fasted rats. Particulars: male, Sprague-Dawley, rat, plasma; rats under fasting state; dose equal to 10 mg/kg lurasidone HCl. It is filed as in vivo. On the procedure:
Lurasidone HCl is used as control group, experimental groups 14-17, 22 and 28 are used as tested group, the pharmacokinetics of each group is evaluated in male Sprague-Dawley rats.
Specifically, control group and experimental groups 14-17, 22 and 28 are administrated to rats under fasting state, respectively, in which the dosage contains 10 mg/kg of lurasidone HCl or the amount of lurasidone equal to 10 mg/kg lurasidone HCl. The number of experimental rats in each group is three, and the sampling time is 0, 0.25, 0.5, 1, 1.5, 2, 4, 6, 8 and 24 hours for analyzing pharmacokinetic results, which are shown in table 15.

For series [3] the following is noted: cited from earlier work.

Turning to `O=C1[C@@H]2[C@H]3CC[C@H](C3)[C@@H]2C(=O)N1C[C@@H]1CCCC[C@H]1CN1CCN(c2nsc3ccccc23)CC1` [Lurasidone HCl], the Solubility came to 0.46 µg/mL in series [1] (Table 11, paddle method, 500 mL medium pH 6.0+0.01% SDS, 100 rpm, sampling time 60 minutes, HCl) and 0.46 µg/mL in series [1] (Table 12, carrier comparison PVAP vs crospovidone, method of Example 1.3.1, HCl). Further, in series [2], the AUC(0-inf) came to 102 ng·h/mL. Moreover, the Cmax in series [2] came to 32 ng/mL.

`O=C1[C@@H]2[C@H]3CC[C@H](C3)[C@@H]2C(=O)N1C[C@@H]1CCCC[C@H]1CN1CCN(c2nsc3ccccc23)CC1` [Lurasidone]: the Solubility in series [1] (Table 11, paddle method, 500 mL medium pH 6.0+0.01% SDS, 100 rpm, sampling time 60 minutes) amounted to 0.09 µg/mL (≈ 0.183 µM); in series [1] (Table 12, carrier comparison PVAP vs crospovidone, method of Example 1.3.1), 0.09 µg/mL (≈ 0.183 µM). For the same compound, the solubility in water result in series [3] is recorded as “lower than 0.1 mg/mL”.
